The text below walks through data of ChEMBL document CHEMBL4665817, “Immobilized Metal Affinity Chromatography as a Drug Discovery Platform for Metalloenzyme Inhibitors” (J Med Chem, 2020).

The source made the active and inactive calls. No cut-off for these calls is given here.

Common to all, as to details: dose 2.55 µmol
The nature of assay [1]: Binding affinity to Zinc ion at 2.55 umol in presence of DTT by immobilized metal-ion affinity chromatography.
A short description of assay [2]: Binding affinity to Gallium ion assessed as performance ratio ratio by measuring product of accounting ratio and retention ratio at 2.55 umol by immobilized metal-ion affinity chromatography.
A short description of assay [3]: Binding affinity to Ferric ion assessed as performance ratio ratio by measuring product of accounting ratio and retention ratio at 2.55 umol by immobilized metal-ion affinity chromatography.
The nature of assay [4]: Binding affinity to Ferric ion assessed as retention ratio by measuring compound detected in elution fraction/total compound detected at 2.55 umol by immobilized metal-ion affinity chromatography.
Assay [5] can be described thus: Binding affinity to zinc ion assessed as accounting ratio by measuring total compound detected/total compound adsorbed at 2.55 umol by immobilized metal-ion affinity chromatography.
Assay [6] can be described thus: Binding affinity to cupric ion assessed as accounting ratio by measuring total compound detected/total compound adsorbed at 2.55 umol by immobilized metal-ion affinity chromatography.
Assay [7] can be described thus: Binding affinity to Nickel cation assessed as accounting ratio by measuring total compound detected/total compound adsorbed at 2.55 umol by immobilized metal-ion affinity chromatography.
Assay [8] can be described thus: Binding affinity to Zinc ion assessed as performance ratio ratio by measuring product of accounting ratio and retention ratio at 2.55 umol by immobilized metal-ion affinity chromatography.
Assay [9] is described as follows: Binding affinity to Nickel cation assessed as performance ratio ratio by measuring product of accounting ratio and retention ratio at 2.55 umol by immobilized metal-ion affinity chromatography.
Assay [10] is described as follows: Binding affinity to cupric ion assessed as performance ratio ratio by measuring product of accounting ratio and retention ratio at 2.55 umol by immobilized metal-ion affinity chromatography.
Assay [11] is described as follows: Binding affinity to Zinc ion assessed as retention ratio by measuring compound detected in elution fraction/total compound detected at 2.55 umol by immobilized metal-ion affinity chromatography.
Assay [12] is described as follows: Binding affinity to Nickel cation assessed as retention ratio by measuring compound detected in elution fraction/total compound detected at 2.55 umol by immobilized metal-ion affinity chromatography.
The nature of assay [13]: Binding affinity to Gallium ion assessed as retention ratio by measuring compound detected in elution fraction/total compound detected at 2.55 umol by immobilized metal-ion affinity chromatography.
A short description of assay [14]: Binding affinity to ferric ion assessed as accounting ratio by measuring total compound detected/total compound adsorbed at 2.55 umol by immobilized metal-ion affinity chromatography.
The nature of assay [15]: Binding affinity to cupric ion assessed as retention ratio by measuring compound detected in elution fraction/total compound detected at 2.55 umol by immobilized metal-ion affinity chromatography.
A short description of assay [16]: Binding affinity to gallium ion assessed as accounting ratio by measuring total compound detected/total compound adsorbed at 2.55 umol by immobilized metal-ion affinity chromatography.

Take `C[C@H](CSS[C@@H](Cc1ccccc1)C(=O)N[C@H]1CCS[C@H]2CCC[C@@H](C(=O)O)N2C1=O)C(=O)N1CCC[C@H]1C(=O)O`: the result in assay [1] was inactive.
Still for that read-out and setting: the result for `O=C(N[C@H]1CCS[C@H]2CCC[C@@H](C(=O)O)N2C1=O)[C@H](Cc1ccccc1)SS[C@@H](Cc1ccccc1)C(=O)N[C@H]1CCS[C@H]2CCC[C@@H](C(=O)O)N2C1=O` reads “inactive”; that for `C[C@H](CSSC[C@@H](C)C(=O)N1CCC[C@H]1C(=O)O)C(=O)N1CCCC1C(=O)O` (stereo partly drawn), “inactive”.
With `NCCCC[C@H](N[C@@H](CCc1ccccc1)C(=O)O)C(=O)N1CCC[C@H]1C(=O)O`, the Ratio worked out at 0 in assay [2]; 0 in assay [3]; 0 in assay [4]; 0.89 in assay [5]; 0.88 in assay [6]; 0.72 in assay [7]. Further, the Ratio in assay [8], in [9], in assay [10], in assay [11], in [12] and in [13] was 0 in each case. Also, the Ratio in assay [14] came out at 0.9; in assay [15] it was 0; in assay [16] it was 0.93.
Take `CC1(C)Cc2c(-c3ccccc3)c(-c3ccc(Cl)cc3)c(CC(=O)O)n2C1`: the Ratio was determined as 0.06 in [2]; 0.37 in assay [3]; 0.39 in assay [4]; 1.05 in assay [5]; 1.03 in assay [6]; 1.03 in [7]. For the same compound, the Ratio in assay [8] is 0.03; in assay [9], 0.03; in [10] it was 0; in [11], 0.03; in assay [12] it was 0.03; in [13] it was 0.06. The Ratio worked out at 0.97 in [14], 0 in assay [15] and 1.08 in [16].
`O=c1cccccc1O`: the Ratio in assay [2] was found to be 0; in assay [3], 0; in [4], 0; in assay [5], 0.97; in assay [6] it was 1.26; in assay [7], 0.7. Besides, the Ratio in [8] was 0.97; in assay [9], 0.7; in assay [10], 1.26; in assay [11] it was 1; in assay [12], 1; in assay [13] it was 0. The Ratio in assay [14] is 0; in [15], 1; in assay [16] it was 0.
